Results from PMC6419571, “Discovery and lead optimisation of a potent, selective and orally bioavailable RARβ agonist for the potential treatment of nerve injury” (Bioorganic & Medicinal Chemistry Letters, 2019).
Marks after values point to notes of the source that are not given here.

Tests used:
Cyp450 3A4 = Cyp450 3A4 (Homo sapiens, UniProt P08684); test: Cyp450 inhibition, 3A4; type: in vitro ADME; settings: isoform 3A4
[1] = Human microsomal stability (Clint); type: in vitro ADME
[2] = Mouse plasma protein binding; type: in vitro ADME
bacterial = test: Bacterial cytotoxicity tests; type: cell-based; settings: up to 100 μM
HERG channels = HERG channels (Homo sapiens, UniProt Q12809); test: Binding assay for HERG channels; settings: at 10 μM
CHO-K1 cells = test: In vitro micronucleus test; type: cell-based; settings: presence and absence of S9
Source text: Similar, negative results were obtained in an in vitro micronucleus test in CHO-K1 cells, in both the presence and absence of S9.

Cyp450 2D6 = Cyp450 2D6 (Homo sapiens, UniProt P10635); test: Cyp450 inhibition, 2D6; type: in vitro ADME; settings: isoform 2D6
Cyp450 2C9 = Cyp450 2C9 (Homo sapiens, UniProt P11712); test: Cyp450 inhibition, 2C9; type: in vitro ADME; settings: isoform 2C9
three bacterial strains = type: cell-based
Pharmacokinetics in rat = type: in vivo; set-up: Volume distribution ss: unit not given here
Cyp450 2C19 = Cyp450 2C19 (Homo sapiens, UniProt P33261); test: Cyp450 inhibition, 2C19; type: in vitro ADME; settings: isoform 2C19
avulsed rats = test: Rodent model of avulsion: sensory and locomotor tasks; type: in vivo, rat; settings: 3 mg/kg, po, three times a week
Procedure: Rats were trained for two weeks prior to surgery in behavioural tasks and scores were recorded the day before surgery, the day after surgery and then weekly, for four weeks. Surgery was performed as previously described.[11], [12] In a sticky tape task, the time taken to sense and remove the tape from the paw of the lesioned forelimbs was measured. […] In locomotor tasks, the number of foot slips in a horizontal ladder made by the injured forelimb of the compound 10 treated rats was also measured. […] Further details and data on an in vivo model of crush injury will be presented in due course.
Fig. 2 Effects of oral administration of compound 10 in sensory and locomotor functions in avulsed rats. Dose 3 mg/kg, po, three times a week, every other day. Data represent mean ± SEM of n = 8, **p ≤ 0.005, ***p ≤ 0.001. Two-way repeated-measures ANOVA, Tukey’s post-hoc test.

RARβ = target: T1, RARβ (Homo sapiens, UniProt P10826); test: Transactivation against the human RAR ligand-binding domains; type: cell-based
T1 construct: expressed in transfected cells
T1 sequence (P10826 183-417 limits assumed): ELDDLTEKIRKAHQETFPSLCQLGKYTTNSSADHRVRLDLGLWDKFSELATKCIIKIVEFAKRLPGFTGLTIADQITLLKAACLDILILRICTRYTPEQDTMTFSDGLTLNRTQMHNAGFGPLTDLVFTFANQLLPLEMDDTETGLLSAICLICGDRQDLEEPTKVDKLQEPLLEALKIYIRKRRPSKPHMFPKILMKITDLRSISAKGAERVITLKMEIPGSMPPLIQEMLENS
Source text: The more drug-like template present in 10 translates into a good in vitro and in vivo profile for this RARβ agonist (Table 5).

Solubility = type: physicochemical; settings: pH 7.4, as the amorphous sodium salt
HEPG2 cell = HEPG2 cell toxicity assay; type: cell-based; settings: highest concentration tested 50 μM
Cerebellar neurons = test: Neurite outgrowth in cerebellar cultures on CHO-MAG monolayer; type: cell-based; settings: 24 hr treatment, 1 × 10^−8–1 × 10^−6 M
Procedure: Compound 10 was evaluated for neurite outgrowth/branching in cerebellar cultures. Cerebellar cultures grown on a monolayer of CHO-MAG were treated with RARβ agonists and neurite outgrowth was assessed by immunostaining and neurite length quantification.[10]
Fig. 1 Effects of RARβ agonists 10 on neurite outgrowth. Cerebellar neurons grown on a monolayer of CHO-MAG cells were treated for 24 hr with either vehicle (V) or increasing doses of RARβ agonists (1 × 10^−8–1 × 10^−6 M). Both RARβ agonists increase neurite outgrowth in a dose dependant manner. Results are means from 3 independent experiments. Statistical analysis was done using Student’s t-test between vehicle and each drug’s highest dose. Error bars are SEM and **p ≤ 0.001, *p ≤ 0.01.

RARγ = target: T2, RARγ (Mus musculus, UniProt P18911); test: RAR gamma transactivation assay (gal4-RAR LBD fusion, luciferase reporter, COS-7 cells); type: cell-based; settings: mouse RAR ligand binding domain; Tables 1 and 4; read-out: γ EC50
T2 construct: expressed in transfected cells; host or cells: COS-7
T2 sequence (P18911 185-419 limits assumed): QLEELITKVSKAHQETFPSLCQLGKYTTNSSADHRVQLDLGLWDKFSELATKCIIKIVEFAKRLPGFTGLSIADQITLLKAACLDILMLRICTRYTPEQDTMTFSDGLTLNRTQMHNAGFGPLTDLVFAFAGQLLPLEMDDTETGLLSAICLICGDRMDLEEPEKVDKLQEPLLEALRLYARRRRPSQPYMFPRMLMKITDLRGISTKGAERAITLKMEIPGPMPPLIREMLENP
Procedure: Compounds were tested in transactivation assays at the RAR α, β and γ receptors.
Transactivation assays for RAR alpha, beta and gamma receptors:
Transcriptional transactivation assays have been performed with gal4 fusion receptor constructs, created using each of the mouse RAR ligand-binding domains, co-transfected with the pFR-luc (Stratagene) reporter construct in COS-7 cells.
Briefly, on day one, 96 well plates were seeded with 8000 cells per well then left to recover overnight. On day two, the cells were co-transfected with 100ng of reporter plasmid and 10ng of the appropriate receptor plasmid per well using lipofectamine (Invitrogen). On day three, the lipofectamine containing media was replaced by a DMEM without phenol red, followed by the addition of novel compounds dissolved in 1µl of DMSO to each well’s 100µl total volume. Finally, on day four, the cells were lysed and their luciferase substrate was provided by the BrightGlo reagent (Promega), the plates were then read on the MicroBeta TriLux (Perkin Elmer).
Data for test compounds are quoted as EC50 values. Where replicate data has been generated the data are quoted as the mean EC50 from the separate experiments.

[3] = Human plasma protein binding; type: in vitro ADME

Sequence of Cyp450 2D6 (P10635 whole entry, canonical isoform): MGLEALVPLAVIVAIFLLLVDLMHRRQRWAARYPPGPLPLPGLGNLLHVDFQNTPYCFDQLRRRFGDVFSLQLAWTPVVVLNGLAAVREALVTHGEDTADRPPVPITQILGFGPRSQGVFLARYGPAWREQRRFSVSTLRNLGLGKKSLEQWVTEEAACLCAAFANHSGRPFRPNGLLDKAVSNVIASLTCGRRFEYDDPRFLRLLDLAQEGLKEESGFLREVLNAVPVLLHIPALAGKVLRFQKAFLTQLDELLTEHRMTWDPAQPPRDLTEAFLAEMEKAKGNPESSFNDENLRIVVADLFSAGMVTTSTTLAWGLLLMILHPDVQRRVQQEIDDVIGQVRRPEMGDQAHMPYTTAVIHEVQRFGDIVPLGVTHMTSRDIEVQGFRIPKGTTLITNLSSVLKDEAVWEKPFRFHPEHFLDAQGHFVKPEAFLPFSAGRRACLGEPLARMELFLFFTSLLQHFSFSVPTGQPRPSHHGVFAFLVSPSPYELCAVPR
Sequence of Cyp450 3A4 (P08684 whole entry, canonical isoform): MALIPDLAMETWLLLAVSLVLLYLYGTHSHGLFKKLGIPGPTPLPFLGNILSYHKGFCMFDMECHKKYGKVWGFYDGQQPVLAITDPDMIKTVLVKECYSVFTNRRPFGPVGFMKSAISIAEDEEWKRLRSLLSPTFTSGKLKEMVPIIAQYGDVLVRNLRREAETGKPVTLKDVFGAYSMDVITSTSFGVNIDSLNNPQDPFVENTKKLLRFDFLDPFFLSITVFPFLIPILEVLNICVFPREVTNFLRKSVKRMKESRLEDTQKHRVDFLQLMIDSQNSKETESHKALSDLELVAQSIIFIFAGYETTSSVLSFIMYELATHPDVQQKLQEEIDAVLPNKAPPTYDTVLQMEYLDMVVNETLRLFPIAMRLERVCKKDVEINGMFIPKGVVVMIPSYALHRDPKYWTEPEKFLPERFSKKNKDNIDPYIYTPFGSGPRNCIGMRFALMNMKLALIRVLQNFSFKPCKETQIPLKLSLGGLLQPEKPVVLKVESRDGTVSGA
Sequence of Cyp450 2C9 (P11712 whole entry, canonical isoform): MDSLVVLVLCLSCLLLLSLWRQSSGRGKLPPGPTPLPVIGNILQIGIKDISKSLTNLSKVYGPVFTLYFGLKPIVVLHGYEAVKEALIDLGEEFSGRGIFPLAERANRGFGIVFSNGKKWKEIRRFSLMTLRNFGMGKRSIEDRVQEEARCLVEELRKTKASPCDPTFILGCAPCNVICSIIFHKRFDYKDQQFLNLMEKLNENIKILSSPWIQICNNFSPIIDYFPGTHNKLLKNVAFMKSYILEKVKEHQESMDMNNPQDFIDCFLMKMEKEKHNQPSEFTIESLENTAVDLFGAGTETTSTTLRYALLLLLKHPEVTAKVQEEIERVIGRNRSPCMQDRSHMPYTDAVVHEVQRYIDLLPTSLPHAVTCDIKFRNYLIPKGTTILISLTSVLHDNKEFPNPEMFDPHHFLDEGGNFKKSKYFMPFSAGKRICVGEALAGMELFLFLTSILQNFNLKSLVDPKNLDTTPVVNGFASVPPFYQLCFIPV
Sequence of Cyp450 2C19 (P33261 whole entry, canonical isoform): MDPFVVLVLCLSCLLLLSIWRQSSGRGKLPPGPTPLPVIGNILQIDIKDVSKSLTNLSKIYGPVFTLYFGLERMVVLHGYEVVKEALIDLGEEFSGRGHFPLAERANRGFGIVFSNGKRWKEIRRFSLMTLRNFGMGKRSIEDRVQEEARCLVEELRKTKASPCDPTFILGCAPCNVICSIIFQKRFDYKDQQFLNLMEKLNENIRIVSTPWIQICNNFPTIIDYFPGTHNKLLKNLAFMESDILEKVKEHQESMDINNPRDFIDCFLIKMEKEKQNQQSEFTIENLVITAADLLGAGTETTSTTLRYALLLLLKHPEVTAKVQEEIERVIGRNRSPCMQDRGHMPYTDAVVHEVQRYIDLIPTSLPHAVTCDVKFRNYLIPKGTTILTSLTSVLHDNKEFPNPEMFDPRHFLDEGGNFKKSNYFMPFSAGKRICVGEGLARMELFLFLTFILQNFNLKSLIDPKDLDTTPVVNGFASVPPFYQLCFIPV
Sequence of HERG channels (Q12809 whole entry): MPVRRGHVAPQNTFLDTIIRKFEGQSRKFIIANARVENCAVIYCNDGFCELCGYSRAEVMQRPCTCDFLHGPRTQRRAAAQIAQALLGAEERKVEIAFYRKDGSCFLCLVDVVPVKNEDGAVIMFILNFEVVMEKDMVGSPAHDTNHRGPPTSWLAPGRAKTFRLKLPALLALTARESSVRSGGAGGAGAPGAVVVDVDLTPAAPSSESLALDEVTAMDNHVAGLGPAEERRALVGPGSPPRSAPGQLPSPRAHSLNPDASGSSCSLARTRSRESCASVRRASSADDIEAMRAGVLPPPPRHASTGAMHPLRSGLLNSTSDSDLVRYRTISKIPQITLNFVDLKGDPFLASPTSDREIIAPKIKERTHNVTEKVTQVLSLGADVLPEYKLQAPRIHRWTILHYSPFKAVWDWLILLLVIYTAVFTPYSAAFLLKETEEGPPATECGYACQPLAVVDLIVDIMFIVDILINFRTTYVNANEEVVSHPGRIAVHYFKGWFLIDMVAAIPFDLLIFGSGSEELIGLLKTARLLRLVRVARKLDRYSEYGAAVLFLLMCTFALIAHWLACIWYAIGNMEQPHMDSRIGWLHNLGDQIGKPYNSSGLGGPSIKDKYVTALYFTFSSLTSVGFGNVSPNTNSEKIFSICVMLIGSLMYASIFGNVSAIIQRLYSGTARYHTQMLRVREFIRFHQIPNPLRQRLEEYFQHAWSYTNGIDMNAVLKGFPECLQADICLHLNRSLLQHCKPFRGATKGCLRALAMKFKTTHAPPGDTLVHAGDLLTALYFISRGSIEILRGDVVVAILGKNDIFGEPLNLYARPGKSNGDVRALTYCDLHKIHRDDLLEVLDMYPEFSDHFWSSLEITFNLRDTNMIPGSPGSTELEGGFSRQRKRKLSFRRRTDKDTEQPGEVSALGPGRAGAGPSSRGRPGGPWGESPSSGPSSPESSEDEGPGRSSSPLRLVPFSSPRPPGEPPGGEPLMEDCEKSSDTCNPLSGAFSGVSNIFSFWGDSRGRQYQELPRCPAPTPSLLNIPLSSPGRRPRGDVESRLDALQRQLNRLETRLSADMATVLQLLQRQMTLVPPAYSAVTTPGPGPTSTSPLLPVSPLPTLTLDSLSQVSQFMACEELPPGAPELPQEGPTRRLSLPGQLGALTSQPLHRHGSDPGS

With `Cc1ccc(C)c2oc(-c3nc(-c4ccc(C(=O)O)cc4)no3)cc12` [Compound 10, 4-(5-(4,7-dimethylbenzofuran-2-yl)-1,2,4-oxadiazol-3-yl)benzoic acid] the IC50 (Cyp450 3A4) was > 25 µM, the “stability in human microsomes (in words)” value [1] was “very high stability” and the microsomal CLint ([1]; human microsomes, 37 °C, NADPH, 45 min, mean of 5 experiments) was < 1 µL/min/mg. The fraction unbound [2] was 0.05, the bacterial cytotoxicity (bacterial) was “inactive” and the “HERG channel binding inhibition” value (HERG channels) was “no inhibition”. For the same compound, the “in vitro micronucleus test result” value (CHO-K1 cells) was “negative”, the IC50 (Cyp450 2D6) was > 25 µM and the IC50 (Cyp450 2C9) was > 25 µM. For the same compound, the Ames test result (three bacterial strains) was “inactive”, the clearance (Pharmacokinetics in rat; blood, rat, iv dose 0.5 mg/kg) was 3.7 mL/min/kg and the Tmax (Pharmacokinetics in rat; in vivo, rat, oral doses of 1, 3 and 10 mg/kg) was 1.7 h. For the same compound, the t1/2 (Pharmacokinetics in rat; rat) was 1.4 h, the Volume distribution ss (Pharmacokinetics in rat; rat, iv dose 0.5 mg/kg) was 0.41 and the Fraction absorbed (Pharmacokinetics in rat; rat, mean of 1, 3 and 10 mg/kg oral in comparison to iv 0.5 mg/kg) was 80 ^b %. For the same compound, the oral bioavailability (Pharmacokinetics in rat; rats) was > 40%, the “CNS penetration: brain tissue compared to plasma” value (Pharmacokinetics in rat; rats, 8 h after dosing orally) was “nearly equivalent amounts detected in brain tissue when compared to plasma” and the IC50 (Cyp450 2C19) was > 25 µM. For the same compound, the “sticky tape task latency (sense and remove tape), injured forelimb vs vehicle” value (avulsed rats; from week three) was “significantly lower latencies”, the “number of foot slips in horizontal ladder, injured forelimb vs vehicle” value (avulsed rats; from week two) was “markedly lower” and the “fold selectivity for RARβ over RARα” value (RARβ) was 23 fold. For the same compound, the “fold selectivity for RARβ over RARγ” value (RARβ) was 5 fold, the EC50 (RARβ; read-out: RARβ potency EC50) was 0.00205 µM and the solubility (Solubility) was > 100 µM. For the same compound, the “HEPG2 cell toxicity alerts” value (HEPG2 cell) was “completely devoid of alerts”, the “neurite length / outgrowth” value (Cerebellar neurons) was “increased neurite length in a dose dependant manner” and the EC50 (RARγ) was 0.011 µM. The fraction unbound [3] was 0.02.
